# Laboratory results reported in patent US20260248780A1, “PHARMACEUTICAL COMPOSITIONS” (Birdie Biopharmaceuticals, Inc., priority 2017, published 2026).
# Legend:
# Type in all cases: physicochemical
# [1] = Hygroscopicity: DVS isotherm at 25° C.; conditions: for hygroscopicity: DVS at 25° C.; for water uptake up to 80% RH: 25° C./80% RH
# Method: DVS isotherm plot was collected at 25° C. to investigate the solid form stability as a function of humidity. […] For the possible hydrate/solvate di-HCl salt Type A, solids were equilibrated at ambient humidity (~30% RH) before testing. DVS was measured via a SMS (Surface Measurement Systems) DVS Intrinsic. The relative humidity at 25° C. were calibrated against deliquescence point of LiCl, Mg(NO3)2 and KCl. DVS isotherm plot was collected at 25° C. to investigate the solid form stability as a function of humidity for anhydrate Type A (807919-05-A). Solids were pre-dried at 0% RH to remove the unbounded solvent or water before started. […] DVS was measured via a SMS (Surface Measurement Systems) DVS Intrinsic. The relative humidity at 25° C. were calibrated against deliquescence point of LiCl, Mg(NO3)2 and KCl.
# [2] = HPLC purity of clear samples after kinetic solubility test; conditions: clear sample after kinetic solubility test, FeSSIF
# Method: (§1) After being centrifuged and separated using 0.45 μm Nylon filter, filtrates were collected for HPLC and pH test, and wet cakes for XRPD characterization. If clear solutions were obtained after 24 hours, accurate concentration and purity were measured for the solutions.
# [3] = Kinetic solubility in water and bio-relevant media (SGF, FaSSIF, FeSSIF) at RT; conditions: for FC: Solid form change / S: Solubility / pH: Final pH of supernatant: RT
# Method: as §1
# [4] = Physical and chemical (solid-state) stability under 25° C./60% RH and 40° C./75% RH for one week; conditions: for Form change: XRPD
# Method: Physicochemical stability of Type A (807919-05-A) was evaluated under 25° C./60% RH and 40° C./75% RH for one week, and 80° C. (closed) for 24 hours.
structure (smiles),measurement,setting,value
"CCOCc1nc2c(N)nc3ccccc3c2n1CC(C)(C)O [Freebase Type A, 1-[4-amino-2-(ethoxymethyl)imidazo-[4,5-c]-quinolin-1-yl]-2-methylpropan-2-ol]",hygroscopicity,[1]; listed as Type A,non-hygroscopic
same,hygroscopicity,[1]; listed as freebase Type A,non-hygroscopic
same,Water Uptake at 25° C./80% RH,"[1]; DVS, 25° C., up to 80% RH",0.1%
same,water uptake up to 80% RH,"[1]; DVS, listed as Type A",0.1%
same,water uptake up to 80% RH,"[1]; DVS, listed as freebase Type A",0.1%
same,Form Change Post DVS Test,[1]; XRPD after DVS,No
same,Form Change Post DVS Test,"[1]; XRPD pre and post DVS, listed as Type A",no form change
same,Form Change Post DVS Test,"[1]; XRPD pre and post DVS, listed as freebase Type A",no form change
same,HPLC Purity % of Initial,[2],99.9%
same,HPLC Purity Area %,[2],99.25 Area %
same,solubility kinetic,[3]; FaSSIF,~2900 µg/mL
same,FC: Solid form change,"[3]; FaSSIF, 1 hr",No
same,S: Solubility,"[3]; FaSSIF, 1 hr",2700 µg/mL
same,pH: Final pH of supernatant,"[3]; FaSSIF, 1 hr",7.0
same,FC: Solid form change,"[3]; FaSSIF, 2 hrs",No
same,S: Solubility,"[3]; FaSSIF, 2 hrs",2800 µg/mL
same,pH: Final pH of supernatant,"[3]; FaSSIF, 2 hrs",7.0
same,FC: Solid form change,"[3]; FaSSIF, 4 hrs",No
same,S: Solubility,"[3]; FaSSIF, 4 hrs",2800 µg/mL
same,pH: Final pH of supernatant,"[3]; FaSSIF, 4 hrs",7.1
same,FC: Solid form change,"[3]; FaSSIF, 24 hrs",No
same,S: Solubility,"[3]; FaSSIF, 24 hrs",2900 µg/mL
same,pH: Final pH of supernatant,"[3]; FaSSIF, 24 hrs",7.0
same,pH: Final pH of supernatant,"[3]; FeSSIF, 24 hrs",5.4
same,solubility kinetic,"[3]; SGF and FeSSIF, simulated gastric fluid, SGF/FeSSIF",> 4900 µg/mL
same,S: Solubility,"[3]; SGF, 1 hr",2700 µg/mL
same,pH: Final pH of supernatant,"[3]; SGF, 1 hr",3.6
same,S: Solubility,"[3]; SGF, 2 hrs",3500 µg/mL
same,pH: Final pH of supernatant,"[3]; SGF, 2 hrs",5.0
same,S: Solubility,"[3]; SGF, 4 hrs",5000 µg/mL
same,pH: Final pH of supernatant,"[3]; SGF, 4 hrs",5.0
same,S: Solubility,"[3]; SGF, 24 hrs",5000 µg/mL
same,pH: Final pH of supernatant,"[3]; SGF, 24 hrs",4.9
same,FC: Solid form change,"[3]; Water, 1 hr",No
same,S: Solubility,"[3]; Water, 1 hr",500 µg/mL
same,pH: Final pH of supernatant,"[3]; Water, 1 hr",8.4
same,FC: Solid form change,"[3]; Water, 2 hrs",No
same,S: Solubility,"[3]; Water, 2 hrs",500 µg/mL
same,pH: Final pH of supernatant,"[3]; Water, 2 hrs",8.6
same,FC: Solid form change,"[3]; Water, 4 hrs",No
same,S: Solubility,"[3]; Water, 4 hrs",500 µg/mL
same,pH: Final pH of supernatant,"[3]; Water, 4 hrs",8.1
same,FC: Solid form change,"[3]; Water, 24 hrs",No
same,S: Solubility,"[3]; Water, 24 hrs",500 µg/mL
same,pH: Final pH of supernatant,"[3]; Water, 24 hrs",8.1
same,Kinetic Solubility at RT,[3]; water,~0.5 (water) mg/mL
same,HPLC Purity % of Initial,[4]; 25° C./60% RH,99.8%
same,HPLC Purity Area %,[4]; 25° C./60% RH,99.15 Area %
same,Form change,[4]; 25° C./60% RH,No
same,HPLC Purity % of Initial,[4]; 40° C./75% RH,100.0%
same,HPLC Purity Area %,[4]; 40° C./75% RH,99.28 Area %
same,Form change,[4]; 40° C./75% RH,No
